# In patent publication US4515793A, “Phenylpiperazines which are useful in the treatment of schistosomiasis” (Edna McConnell Clark Foundation, priority 1983, dated 1985):
# Tests used:
# S. mansoni = assay: antischistosomal activity in mice (live worm burden, single oral dose); assay type: in vivo, S. mansoni (host: CD1 white female mice); conditions: Schistosoma mansoni, single oral dose, read-out: % Reduction Live Worm Burden; for inhibition in vivo at 50 mg/kg: mice (footnote, 40 mg/kg); for inhibition in vivo at 156 mg/kg: mice (footnote, 125 mg/kg column)
# Method: Tests were conducted to determine the antischistosomal activity in mice and monkeys. The results of the mice tests are reported in Tables 1 to 4 along with the chemical identifications of the compounds synthesized and tested.
# The mice tests were conducted as follows:
# A. Preinfection Procedures: Purina Laboratory chow (Ralston-Purina) and water were given ad libitum. All mice were housed in hanging stainless steel cages, without bedding, five per cage. They were kept in a ward with an ambient temperature of 75° F. and a relative humidity of 50-55%. Therapeutic treatment was given on Day 40 post-infection.
# B. Experimental Procedures: CD1 white female mice were exposed by the tail immersion method for 30 minutes to 80 individually counted S. mansoni cercariae (WRAIR laboratory strain). The cercariae were obtained from pools of no less than 25 Biophalaria glabrata snails. Each experiment consisted of 118 mice divided into infected/water treated and infected/vehicle-treated controls, and infected/drug-treated groups (two dose levels) for six compounds. Groups of 12 mice each were treated with a compound synthesized and provided by the Warner-Lambert Company, Ann Arbor, Mich. at two dose levels. At the same time, five mice were sacrificed to establish worm burdens as infection controls. Three weeks after treatment, all remaining mice were sacrificed and perfused. Gross pathology (liver and intestines) was noted and graded (0 to +3). Worm burdens were determined and the sex of the worms recorded. Following perfusions the liver and intestines were removed and examined for the presence of […] or dead worms. […] Drugs were administered orally in Emulphor EL.
# C. Drug Treatment: Treatment consisted of a single oral dose. Each drug was give initially at two dose levels, 40 mg/kg and 125 mg/kg, SID×1.
# D. Criteria Used to Evaluate Therapeutic Effectiveness:
# Evaluation of activity was determined by examination of the animals at 23 to 28 days after treatment. The schistosomes remaining alive after treatment were counted in the perfusates of the hepatic portal system and in press preparation of the livers. In the same preparations, the relative numbers of dead and/or encapsulated (i.e., worms may or may not be dead) parasites and the relative degree of pathology were ascertained. The efficacy of each treatment was that percentage of the control infection represented by the difference between numbers of parasites recovered from control (H2 O+vehicle) and treated animals. Thus, % efficacy is: [formula]
# Salmonella Typhimurium = assay: bacterial mutagenicity (Ames/Salmonella), five strains together; assay type: cell-based; conditions: for bacterial mutagenicity: initial test
# Method: (§1) The tests were carried out as follows:
# (§2) Four phenylpiperazine derivatives were selected and specially purified samples were prepared for testing as bacterial mutagens. The tests were conducted with five strains (TA98, TA100, TA1535, TA1537, and TA1538) of Salmonella Typhimurium. The compounds were the base of cpd. A (Table 6a), cpd. 28 (Table 2), cpd. 49 (Table 3), and cpd. 8 (Table 1). Hycanthone was used as a positive control drug.
# [1] = tested on: Salmonella Typhimurium TA98; assay: bacterial mutagenicity, strain TA98; assay type: cell-based; parameters: key to Mutagenicity TA98: +: Positive Response; -: Negative Response; w+: Weak Positive Response
# Method: as §1
# as §2, with “drug. In the initial test, cpd. A base was nonmutagenic, confirming previous work using strains TA98 and TA100 with cpd. A. Cpd. 28 and cpd. […] In this initial test, cpd. […] Therefore, it was concluded that cpd. 49 is nonmutagenic in the Ames/Salmonella assay.” for “drug.”
# [2] = tested on: Salmonella Typhimurium TA100; assay: bacterial mutagenicity, strain TA100; assay type: cell-based; parameters: key: +: Positive Response; -: Negative Response; w+: Weak Positive Response
# Method: as §1
# as §2, with “drug. In the initial test, cpd. A base was nonmutagenic, confirming previous work using strains TA98 and TA100 with cpd. A. Cpd. 28 and cpd. […] In this initial test, cpd. […] Therefore, it was concluded that cpd. 49 is nonmutagenic in the Ames/Salmonella assay.” for “drug.”
# [3] = tested on: Salmonella Typhimurium TA1535; assay: bacterial mutagenicity, strain TA1535; assay type: cell-based; parameters: key: +: Positive Response; -: Negative Response; w+: Weak Positive Response; conditions: without metabolic activation
# Method: as §1
# as §2, with “drug. In the initial test, cpd. A base was nonmutagenic, confirming previous work using strains TA98 and TA100 with cpd. A. Cpd. 28 and cpd. […] In this initial test, cpd. […] Therefore, it was concluded that cpd. 49 is nonmutagenic in the Ames/Salmonella assay.” for “drug.”
# [4] = tested on: Salmonella Typhimurium TA1537; assay: bacterial mutagenicity, strain TA1537; assay type: cell-based; parameters: key: +: Positive Response; -: Negative Response; w+: Weak Positive Response
# Method: as §1
# as §2, with “drug. In the initial test, cpd. A base was nonmutagenic, confirming previous work using strains TA98 and TA100 with cpd. A. Cpd. 28 and cpd. […] In this initial test, cpd. […] Therefore, it was concluded that cpd. 49 is nonmutagenic in the Ames/Salmonella assay.” for “drug.”
# [5] = tested on: Salmonella Typhimurium TA1538; assay: bacterial mutagenicity, strain TA1538; assay type: cell-based; parameters: key: +: Positive Response; -: Negative Response; w+: Weak Positive Response
# Method: as §1
# as §2, with “drug. In the initial test, cpd. A base was nonmutagenic, confirming previous work using strains TA98 and TA100 with cpd. A. Cpd. 28 and cpd. […] In this initial test, cpd. […] Therefore, it was concluded that cpd. 49 is nonmutagenic in the Ames/Salmonella assay.” for “drug.”
Structure (SMILES),inhibition in vivo at 40 mg/kg (S. mansoni; mice) [%],inhibition in vivo at 50 mg/kg (S. mansoni) [%],inhibition in vivo at 156 mg/kg (S. mansoni) [%],bacterial mutagenicity (Salmonella Typhimurium; five strains),Mutagenicity TA98 ([1]; with metabolic activation),Mutagenicity TA98 ([1]; without metabolic activation),Mutagenicity TA100 ([2]; with metabolic activation),Mutagenicity TA1535 [3],Mutagenicity TA1537 ([4]; with metabolic activation),Mutagenicity TA1537 ([4]; without metabolic activation),Mutagenicity TA1538 ([5]; with metabolic activation),Mutagenicity TA1538 ([5]; without metabolic activation),inhibition in vivo at 20 mg/kg (S. mansoni; mice) [%],"inhibition in vivo at 125 mg/kg (S. mansoni; 125 mg/kg, mice) [%]","bacterial mutagenicity, conclusion (Salmonella Typhimurium; Ames/Salmonella assay, overall conclusion)",bacterial mutagenicity (Salmonella Typhimurium; other four strains (not TA98)),"bacterial mutagenicity ([1]; initial test, TA98 with microsomal activation)","bacterial mutagenicity ([1]; second test, TA98, microsomal activation, additional concentrations 10-60 micrograms/ml)",Mutagenicity TA100 ([2]; without metabolic activation)
"O=C(CN1CCN(c2ccc(CO)c(Cl)c2)CC1)c1ccc(Cl)c(Cl)c1Cl [Cpd. 8, 2-[4-[3-Chloro-4-(hydroxymethyl)phenyl]-1-piperazinyl]-1-(2,3,4-trichlorophenyl)ethanone]",84,91,96,"mutagenic, but much less so than hycanthone",-,-,+,-,w+,-,-,-,,,,,,,
"O=C(CCN1CCN(c2ccc(CO)c(Cl)c2)CC1)c1ccc(Cl)cc1 [Cpd. 28, 3-[4-[3-Chloro-4-(hydroxymethyl)phenyl]-1-piperazinyl]-1-(4-chlorophenyl)-1-propanone]",88,98,99,"mutagenic, but much less so than hycanthone",-,-,+,-,-,w+,+,w+,66,,,,,,
"O=C(CN1CCN(c2ccc(CO)c(Cl)c2)CC1)c1cc2ccccc2o1 [Cpd. 49, 2-[4-[3-Chloro-4-(hydroxymethyl)phenyl]-1-piperazinyl]-1-(2-benzofuranyl)-ethanone]",,,,,+,-,-,-,-,-,-,-,33,97,nonmutagenic,nonmutagenic,weakly mutagenic,did not confirm this mutagenicity,
"CCN(CC)CCNc1ccc(CO)c2sc3ccccc3c(=O)c12 [Hycanthone, reference compound]",,,,,+,+,+,-,+,+,+,+,,,,,,,+
